From publication PMC10821064, “Mode of Antibacterial Action of Tomatidine C3-Diastereoisomers” (Molecules, 2024)

Biological target: T1, ATP synthase subunit c (Escherichia coli, UniProt P68699)
T1 construct: gene atpE; native ATP synthase in membrane vesicles of E. coli ATCC 25922; with whole ATP synthase complex
Assay: inhibition of NADH-driven ATP synthesis in E. coli membrane vesicles, luminescence (ATPlite), Dixon-type Ki
Format: biochemical
Conditions: read-out: Ki (μM) In Vitro

T1 sequence (P68699 whole entry): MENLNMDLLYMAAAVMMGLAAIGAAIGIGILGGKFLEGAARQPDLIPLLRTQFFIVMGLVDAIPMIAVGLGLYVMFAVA

SMILES	Ki [µM]
C[C@H]1CCC2(NC1)O[C@H]1C[C@H]3[C@@H]4CCC5C[C@@H](NCCN)CC[C@]5(C)[C@H]4CC[C@]3(C)[C@H]1[C@@H]2C (some centres unmarked) [TM-02]	1.1
C[C@H]1CCC2(NC1)O[C@H]1C[C@H]3[C@@H]4CCC5C[C@H](NCCN)CC[C@]5(C)[C@H]4CC[C@]3(C)[C@H]1[C@@H]2C (some centres unmarked) [TM-03]	3.5
